“Also recorded” adds a separate entry of the source. One block for each compound: values may come before it.
What was measured:
[1] = Chemical stability in aqueous medium; type: physicochemical
[2] = target: T1, guanase from rabbit liver (Oryctolagus cuniculus, UniProt G1T386); type: biochemical
T1 sequence (G1T386 1-454): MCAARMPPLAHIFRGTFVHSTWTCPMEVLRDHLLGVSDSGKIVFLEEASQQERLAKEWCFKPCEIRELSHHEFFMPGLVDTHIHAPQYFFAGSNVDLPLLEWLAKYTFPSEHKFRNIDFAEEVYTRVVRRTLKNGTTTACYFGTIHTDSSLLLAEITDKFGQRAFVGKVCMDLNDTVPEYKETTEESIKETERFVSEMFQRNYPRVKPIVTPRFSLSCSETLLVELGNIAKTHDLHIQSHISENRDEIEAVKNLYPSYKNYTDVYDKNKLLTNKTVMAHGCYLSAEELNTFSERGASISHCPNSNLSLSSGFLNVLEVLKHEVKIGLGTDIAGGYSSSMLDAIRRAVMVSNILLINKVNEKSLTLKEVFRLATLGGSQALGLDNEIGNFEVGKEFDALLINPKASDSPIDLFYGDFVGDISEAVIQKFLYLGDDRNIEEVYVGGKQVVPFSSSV

guanase = details: in tissue cultures; cited from earlier work

- Stability in aqueous acidic environment ([1]; aqueous acidic environment (1N HCl)): reasonably stable
Structure (SMILES): O=C1NCC(O)Nc2c1ncn2Cc1ccccc1 (centres unmarked) [Compound 1, 3-Benzyl-5-hydroxy-4,5,6,7-tetrahydroimidazo[4,5-e] [1,4]diazepin-8(3H)-one]
- Stability under neutral conditions ([1]; neutral aqueous medium): quite unstable and decomposed; also recorded: decomposes in neutral aqueous medium over time

- Ki ([2]; Ki): ~8 µM
Structure (SMILES): COC1CNC(=O)c2nc[nH]c2N1Cc1ccccc1 (centres unmarked) [Compound 9, 4-Benzyl-5-methoxy-4,5,6,7-tetrahydroimidazo[4,5-e][1,4]diazepin-8(3H)-one]

Structure (SMILES): O=C1NC(O)CNc2nc[nH]c21 (centres unmarked) [Azepinomycin]
- IC50 (guanase): ~5 µM

- Km ([2]; read-out: KM of enzyme with guanine as substrate, 25 °C, pH 7.4): 5.5 µM
Structure (SMILES): Nc1nc2nc[nH]c2c(=O)[nH]1 [guanine, reference compound]

Reference: article PMC3761942 (Bioorganic & medicinal chemistry, 2013)
